{"source": "ChEMBL document CHEMBL4387741", "about": "“Optimization of novel reversible Bruton's tyrosine kinase inhibitors identified using Tethering-fragment-based screens” (Bioorg Med Chem, 2019)", "key": {"[1]": {"target": "Ephrin type-B receptor 6 (Homo sapiens) (UniProt O15197)", "assay": "Inhibition of wild-type human partial length EPHB6 (Q634 to P948 residues) expressed in mammalian expression system at 1 uM by Kinomescan method relative to control"}, "[2]": {"target": "Activin receptor type-2A (Homo sapiens) (UniProt P27037)", "assay": "Inhibition of wild-type human ACVR2A (V171 to T499 residues) expressed in bacterial expression system at 1 uM by Kinomescan method relative to control"}, "[3]": {"target": "Activin receptor type-2B (Homo sapiens) (UniProt Q13705)", "assay": "Inhibition of wild-type human ACVR2B (H169 to D504 residues) expressed in bacterial expression system at 1 uM by Kinomescan method relative to control"}, "[4]": {"target": "Myosin-IIIb (Homo sapiens) (UniProt Q8WXR4)", "assay": "Inhibition of wild-type human partial length MYO3B (M1 to D357 residues) expressed in bacterial expression system at 1 uM by Kinomescan method relative to control"}, "[5]": {"target": "Dual specificity testis-specific protein kinase 1 (Homo sapiens) (UniProt Q15569)", "assay": "Inhibition of wild-type human full length TESK1 (R37 to S626 residues) expressed in bacterial expression system at 1 uM by Kinomescan method relative to control"}, "[6]": {"target": "Mast/stem cell growth factor receptor Kit (Homo sapiens) (UniProt P10721)", "assay": "Inhibition of wild-type human partial length autoinhibited KIT (Y545 to D952 residues) expressed in mammalian expression system at 1 uM by Kinomescan method relative to control"}, "[7]": {"target": "Tyrosine-protein kinase receptor TYRO3 (Homo sapiens) (UniProt Q06418)", "assay": "Inhibition of wild-type human partial length TYRO3 (S497 to T814 residues) expressed in bacterial expression system at 1 uM by Kinomescan method relative to control"}, "[8]": {"target": "Serine/threonine-protein kinase N1 (Homo sapiens) (UniProt Q16512)", "sequence (Q16512 2-942 limits assumed)": "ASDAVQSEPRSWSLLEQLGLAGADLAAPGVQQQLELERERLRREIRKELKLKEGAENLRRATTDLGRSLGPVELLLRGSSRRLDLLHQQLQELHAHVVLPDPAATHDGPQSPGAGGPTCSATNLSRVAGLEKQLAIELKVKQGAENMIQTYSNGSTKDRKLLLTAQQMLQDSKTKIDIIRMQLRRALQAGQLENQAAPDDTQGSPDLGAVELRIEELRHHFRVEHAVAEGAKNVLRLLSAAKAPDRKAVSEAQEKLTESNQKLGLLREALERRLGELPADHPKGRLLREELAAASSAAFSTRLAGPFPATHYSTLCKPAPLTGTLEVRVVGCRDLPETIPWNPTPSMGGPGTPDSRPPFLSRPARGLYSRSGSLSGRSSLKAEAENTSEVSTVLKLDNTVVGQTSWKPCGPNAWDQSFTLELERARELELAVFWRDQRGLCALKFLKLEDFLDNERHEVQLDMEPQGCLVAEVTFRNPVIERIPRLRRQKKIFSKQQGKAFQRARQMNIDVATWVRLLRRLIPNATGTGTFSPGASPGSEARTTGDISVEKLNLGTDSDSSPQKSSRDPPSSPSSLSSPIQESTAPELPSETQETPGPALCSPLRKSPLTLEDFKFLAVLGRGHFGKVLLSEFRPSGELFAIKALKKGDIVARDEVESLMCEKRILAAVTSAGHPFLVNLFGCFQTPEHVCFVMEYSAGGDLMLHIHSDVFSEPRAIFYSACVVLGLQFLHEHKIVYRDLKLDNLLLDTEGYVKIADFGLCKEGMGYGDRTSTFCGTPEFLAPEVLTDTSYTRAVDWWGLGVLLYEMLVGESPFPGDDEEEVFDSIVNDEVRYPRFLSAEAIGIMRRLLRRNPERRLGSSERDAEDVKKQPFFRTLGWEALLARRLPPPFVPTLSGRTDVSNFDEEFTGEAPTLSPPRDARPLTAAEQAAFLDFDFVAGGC", "assay": "Inhibition of wild-type human partial length PKN1 (E598 to C948 residues) expressed in bacterial expression system at 1 uM by Kinomescan method relative to control"}, "[9]": {"target": "Uncharacterized serine/threonine-protein kinase SBK3 (Homo sapiens) (UniProt P0C264)", "assay": "Inhibition of wild-type human partial length SgK110 (L22 to R329 residues) expressed in bacterial expression system at 1 uM by Kinomescan method relative to control"}, "[10]": {"system": "Tyrosine-protein kinase ABL1 (Homo sapiens), P00519 [T315I]", "assay": "Inhibition of human non-phosphorylated ABL1 T315I mutant (S229 to K512 residues) expressed in mammalian expression system at 1 uM by Kinomescan method relative to control"}, "[11]": {"target": "Ribosomal protein S6 kinase alpha-1 (Homo sapiens) (UniProt Q15418)", "sequence (Q15418 whole entry, the tested form may be a part)": "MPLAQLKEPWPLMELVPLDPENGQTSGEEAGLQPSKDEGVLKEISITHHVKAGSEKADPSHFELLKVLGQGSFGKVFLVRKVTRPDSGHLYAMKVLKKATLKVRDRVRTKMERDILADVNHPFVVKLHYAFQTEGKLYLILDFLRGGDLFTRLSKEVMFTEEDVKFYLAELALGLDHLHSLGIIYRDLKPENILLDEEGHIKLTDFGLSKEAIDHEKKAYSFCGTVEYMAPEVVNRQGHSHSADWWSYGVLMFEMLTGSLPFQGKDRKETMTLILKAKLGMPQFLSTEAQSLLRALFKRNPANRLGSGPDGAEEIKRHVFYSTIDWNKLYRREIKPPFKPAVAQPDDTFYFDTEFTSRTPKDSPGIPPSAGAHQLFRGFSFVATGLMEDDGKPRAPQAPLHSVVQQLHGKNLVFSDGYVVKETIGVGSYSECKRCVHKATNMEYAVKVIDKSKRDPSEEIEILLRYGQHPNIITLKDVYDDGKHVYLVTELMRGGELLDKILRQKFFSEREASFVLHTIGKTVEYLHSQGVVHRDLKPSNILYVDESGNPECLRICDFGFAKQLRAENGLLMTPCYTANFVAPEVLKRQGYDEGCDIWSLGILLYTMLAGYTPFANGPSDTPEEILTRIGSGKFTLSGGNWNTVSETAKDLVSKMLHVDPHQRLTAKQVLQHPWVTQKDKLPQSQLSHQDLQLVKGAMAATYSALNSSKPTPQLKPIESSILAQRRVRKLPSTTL", "assay": "Inhibition of wild-type human partial length N-terminal RSK1 Kinase domain 1 (M1 to E388 residues) expressed in bacterial expression system at 1 uM by Kinomescan method relative to control"}, "[12]": {"system": "Proto-oncogene tyrosine-protein kinase receptor Ret (Homo sapiens), P07949 [V804M]", "assay": "Inhibition of human partial length RET V804M mutant (E713 to D1014 residues) expressed in bacterial expression system at 10 uM by Kinomescan method relative to control"}, "[13]": {"target": "Ribosomal protein S6 kinase alpha-1 (Homo sapiens) (UniProt Q15418)", "assay": "Inhibition of wild-type human partial length C-terminal RSK1 kinase domain 2 (P360 to L681 residues) expressed in bacterial expression system at 10 uM by Kinomescan method relative to control"}, "[14]": {"target": "Calcium/calmodulin-dependent protein kinase type II subunit beta (Homo sapiens) (UniProt Q13554)", "assay": "Inhibition of wild-type human partial length CAMK2B (M1 to Q380 residues) expressed in bacterial expression system at 10 uM by Kinomescan method relative to control"}, "[15]": {"target": "Serine/threonine-protein kinase MRCK alpha (Homo sapiens) (UniProt Q5VT25)", "sequence (Q5VT25 whole entry, the tested form may be a part)": "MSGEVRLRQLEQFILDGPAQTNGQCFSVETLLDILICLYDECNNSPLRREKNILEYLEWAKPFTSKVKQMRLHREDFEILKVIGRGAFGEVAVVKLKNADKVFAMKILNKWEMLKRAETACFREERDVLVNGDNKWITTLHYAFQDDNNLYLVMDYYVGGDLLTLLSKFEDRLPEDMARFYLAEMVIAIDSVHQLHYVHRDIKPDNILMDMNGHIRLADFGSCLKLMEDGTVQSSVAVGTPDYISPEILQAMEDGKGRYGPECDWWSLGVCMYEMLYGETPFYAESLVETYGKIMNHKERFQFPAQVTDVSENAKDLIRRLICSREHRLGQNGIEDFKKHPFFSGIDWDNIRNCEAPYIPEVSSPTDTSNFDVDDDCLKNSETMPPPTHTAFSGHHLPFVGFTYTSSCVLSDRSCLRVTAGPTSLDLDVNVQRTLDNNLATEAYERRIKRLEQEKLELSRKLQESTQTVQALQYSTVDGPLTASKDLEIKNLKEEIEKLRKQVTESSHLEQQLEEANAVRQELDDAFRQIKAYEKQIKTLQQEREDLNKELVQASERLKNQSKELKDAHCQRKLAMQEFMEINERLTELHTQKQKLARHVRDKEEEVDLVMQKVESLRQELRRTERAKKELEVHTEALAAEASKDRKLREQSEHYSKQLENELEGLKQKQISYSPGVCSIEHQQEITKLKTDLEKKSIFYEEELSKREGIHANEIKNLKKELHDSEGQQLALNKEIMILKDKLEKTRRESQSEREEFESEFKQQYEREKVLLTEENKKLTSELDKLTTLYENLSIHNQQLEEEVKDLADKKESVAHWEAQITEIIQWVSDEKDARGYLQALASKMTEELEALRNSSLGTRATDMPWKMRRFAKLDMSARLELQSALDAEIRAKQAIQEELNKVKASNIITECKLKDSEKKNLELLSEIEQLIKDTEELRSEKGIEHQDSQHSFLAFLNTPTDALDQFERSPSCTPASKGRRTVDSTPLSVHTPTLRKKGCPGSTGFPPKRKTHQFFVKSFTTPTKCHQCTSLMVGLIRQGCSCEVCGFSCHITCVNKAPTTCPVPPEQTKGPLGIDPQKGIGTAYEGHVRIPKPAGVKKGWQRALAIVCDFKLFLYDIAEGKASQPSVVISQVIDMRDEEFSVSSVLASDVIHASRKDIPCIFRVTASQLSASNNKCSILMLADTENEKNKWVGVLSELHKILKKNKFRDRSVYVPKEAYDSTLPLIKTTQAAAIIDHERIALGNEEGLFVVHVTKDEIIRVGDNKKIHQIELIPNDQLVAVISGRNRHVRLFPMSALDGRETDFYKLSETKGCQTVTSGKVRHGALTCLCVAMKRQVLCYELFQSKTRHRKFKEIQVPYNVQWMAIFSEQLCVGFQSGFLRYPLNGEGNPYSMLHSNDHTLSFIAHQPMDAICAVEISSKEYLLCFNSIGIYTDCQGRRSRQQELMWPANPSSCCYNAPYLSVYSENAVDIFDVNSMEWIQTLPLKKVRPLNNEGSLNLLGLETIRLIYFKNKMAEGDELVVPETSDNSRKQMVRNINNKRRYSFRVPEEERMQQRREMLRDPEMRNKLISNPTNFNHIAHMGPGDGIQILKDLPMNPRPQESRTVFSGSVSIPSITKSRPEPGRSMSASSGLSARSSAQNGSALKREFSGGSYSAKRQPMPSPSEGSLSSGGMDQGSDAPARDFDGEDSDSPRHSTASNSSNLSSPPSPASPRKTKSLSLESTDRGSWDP", "assay": "Inhibition of wild-type human partial length MRCKA (L57 to V418 residues) expressed in bacterial expression system at 10 uM by Kinomescan method relative to control"}, "[16]": {"target": "Macrophage colony-stimulating factor 1 receptor (Homo sapiens) (UniProt P07333)", "sequence (P07333 whole entry, the tested form may be a part)": "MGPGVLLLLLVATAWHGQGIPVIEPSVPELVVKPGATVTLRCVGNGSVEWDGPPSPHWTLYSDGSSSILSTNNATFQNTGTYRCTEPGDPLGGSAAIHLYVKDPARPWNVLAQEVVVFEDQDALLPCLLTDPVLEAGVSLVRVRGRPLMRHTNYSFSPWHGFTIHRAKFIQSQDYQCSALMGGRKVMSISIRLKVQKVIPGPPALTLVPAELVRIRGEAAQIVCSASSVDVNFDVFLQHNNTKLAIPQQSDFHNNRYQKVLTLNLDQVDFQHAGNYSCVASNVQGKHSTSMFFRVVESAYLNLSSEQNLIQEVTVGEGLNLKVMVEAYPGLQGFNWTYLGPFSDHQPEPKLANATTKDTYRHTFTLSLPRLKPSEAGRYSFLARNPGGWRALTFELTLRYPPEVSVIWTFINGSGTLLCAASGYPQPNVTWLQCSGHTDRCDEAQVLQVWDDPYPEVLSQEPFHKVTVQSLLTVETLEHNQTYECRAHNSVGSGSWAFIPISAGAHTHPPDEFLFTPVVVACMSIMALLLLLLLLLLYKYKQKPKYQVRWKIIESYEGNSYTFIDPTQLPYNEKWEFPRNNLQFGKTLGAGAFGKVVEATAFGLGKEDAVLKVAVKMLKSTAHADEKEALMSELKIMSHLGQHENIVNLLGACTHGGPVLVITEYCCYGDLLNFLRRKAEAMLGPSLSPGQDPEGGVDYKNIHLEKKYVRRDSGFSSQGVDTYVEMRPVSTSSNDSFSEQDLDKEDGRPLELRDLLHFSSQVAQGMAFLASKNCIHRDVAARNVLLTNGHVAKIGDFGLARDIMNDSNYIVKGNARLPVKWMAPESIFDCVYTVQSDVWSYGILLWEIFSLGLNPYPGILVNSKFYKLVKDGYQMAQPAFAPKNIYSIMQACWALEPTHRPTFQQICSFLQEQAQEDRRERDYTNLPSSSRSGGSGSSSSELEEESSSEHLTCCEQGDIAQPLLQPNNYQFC", "assay": "Inhibition of wild-type human partial length autoinhibited CSF1R (Y538 to S939 residues) expressed in mammalian expression system at 10 uM by Kinomescan method relative to control"}, "[17]": {"target": "Mitogen-activated protein kinase 8 (Homo sapiens) (UniProt P45983)", "sequence (P45983 whole entry, the tested form may be a part)": "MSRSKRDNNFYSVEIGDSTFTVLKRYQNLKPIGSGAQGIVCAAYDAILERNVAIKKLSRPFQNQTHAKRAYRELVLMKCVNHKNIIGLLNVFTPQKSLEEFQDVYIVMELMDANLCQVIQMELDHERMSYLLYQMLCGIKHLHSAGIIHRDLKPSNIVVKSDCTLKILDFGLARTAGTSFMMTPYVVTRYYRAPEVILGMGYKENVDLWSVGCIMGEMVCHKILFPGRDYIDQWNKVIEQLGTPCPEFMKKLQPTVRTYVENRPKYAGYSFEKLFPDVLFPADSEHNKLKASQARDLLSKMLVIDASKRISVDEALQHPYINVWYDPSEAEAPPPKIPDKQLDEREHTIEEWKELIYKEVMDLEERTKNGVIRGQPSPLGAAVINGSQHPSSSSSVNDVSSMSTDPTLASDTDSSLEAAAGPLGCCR", "assay": "Inhibition of wild-type human full length JNK1 (M1 to Q384 residues) expressed in mammalian expression system at 10 uM by Kinomescan method relative to control"}, "[18]": {"target": "Dual specificity tyrosine-phosphorylation-regulated kinase 1A (Homo sapiens) (UniProt Q13627)", "assay": "Inhibition of wild-type human partial length DYRK1A (H129 to S509 residues) expressed in mammalian expression system at 10 uM by Kinomescan method relative to control"}, "[19]": {"target": "MAP kinase-activated protein kinase 5 (Homo sapiens) (UniProt Q8IW41)", "assay": "Inhibition of wild-type human partial length MAPKAPK5 (M1 to D322 residues) expressed in mammalian expression system at 10 uM by Kinomescan method relative to control"}, "[20]": {"target": "Eukaryotic translation initiation factor 2-alpha kinase 1 (Homo sapiens) (UniProt Q9BQI3)", "assay": "Inhibition of wild-type human partial length EIF2AK1 (Q147 to E603 residues) expressed in mammalian expression system at 10 uM by Kinomescan method relative to control"}, "[21]": {"target": "Serine/threonine-protein kinase TAO2 (Homo sapiens) (UniProt Q9UL54)", "assay": "Inhibition of wild-type human partial length TAOK2 (M1 to A320 residues) expressed in mammalian expression system at 10 uM by Kinomescan method relative to control"}, "[22]": {"target": "STE20/SPS1-related proline-alanine-rich protein kinase (Homo sapiens) (UniProt Q9UEW8)", "assay": "Inhibition of wild-type human partial length STK39 (P43 to I357 residues) expressed in mammalian expression system at 10 uM by Kinomescan method relative to control"}, "[23]": {"system": "Hepatocyte growth factor receptor (Homo sapiens), P08581 [Y1235D]", "assay": "Inhibition of human partial length MET Y1235D mutant (D1010 to S1367 residues) expressed in bacterial expression system at 10 uM by Kinomescan method relative to control"}, "[24]": {"target": "Serine/threonine-protein kinase PLK4 (Homo sapiens) (UniProt O00444)", "assay": "Inhibition of wild-type human partial length PLK4 (M1 to S273 residues) expressed in mammalian expression system at 10 uM by Kinomescan method relative to control"}, "[25]": {"target": "Platelet-derived growth factor receptor beta (Homo sapiens) (UniProt P09619)", "assay": "Inhibition of wild-type human partial length PDGFRB (V582 to Y1009 residues) expressed in bacterial expression system at 10 uM by Kinomescan method relative to control"}, "[26]": {"target": "Cyclin-dependent kinase 17 (Homo sapiens) (UniProt Q00537)", "assay": "Inhibition of wild-type human full length PCTK2 (M1 to F523 residues) expressed in bacterial expression system at 10 uM by Kinomescan method relative to control"}, "[27]": {"target": "Tyrosine-protein kinase ABL2 (Homo sapiens) (UniProt P42684)", "assay": "Inhibition of wild-type human ABL2 (A248 to G542 residues) expressed in bacterial expression system at 10 uM by Kinomescan method relative to control"}}, "data": [{"smiles": "O=C(Nc1cccc([C@@H]2CN(c3ncnc4[nH]ccc34)CCN2CCO)c1)Nc1c(F)cccc1N1CCCC1", "values": [{"measurement": "inhibition", "setting": "[1]", "result": 100, "unit": "%"}, {"measurement": "inhibition", "setting": "[2]", "result": 100, "unit": "%"}, {"measurement": "inhibition", "setting": "[3]", "result": 100, "unit": "%"}, {"measurement": "inhibition", "setting": "[4]", "result": 94, "unit": "%"}, {"measurement": "inhibition", "setting": "[5]", "result": 100, "unit": "%"}, {"measurement": "inhibition", "setting": "[6]", "result": 100, "unit": "%"}, {"measurement": "inhibition", "setting": "[7]", "result": 100, "unit": "%"}, {"measurement": "inhibition", "setting": "[8]", "result": 80, "unit": "%"}, {"measurement": "inhibition", "setting": "[9]", "result": 100, "unit": "%"}, {"measurement": "inhibition", "setting": "[10]", "result": 100, "unit": "%"}, {"measurement": "inhibition", "setting": "[11]", "result": 90, "unit": "%"}]}, {"smiles": "O=C(Nc1cccc([C@H]2CCCN(c3ncnc4[nH]ccc34)C2)c1)Nc1ccccc1N1CCCC1", "values": [{"measurement": "inhibition", "setting": "[12]", "result": 0.65, "unit": "%"}, {"measurement": "inhibition", "setting": "[13]", "result": 60, "unit": "%"}, {"measurement": "inhibition", "setting": "[14]", "result": 87, "unit": "%"}, {"measurement": "inhibition", "setting": "[15]", "result": 100, "unit": "%"}, {"measurement": "inhibition", "setting": "[16]", "result": 64, "unit": "%"}, {"measurement": "inhibition", "setting": "[17]", "result": 42, "unit": "%"}, {"measurement": "inhibition", "setting": "[18]", "result": 81, "unit": "%"}, {"measurement": "inhibition", "setting": "[19]", "result": 100, "unit": "%"}, {"measurement": "inhibition", "setting": "[20]", "result": 100, "unit": "%"}, {"measurement": "inhibition", "setting": "[21]", "result": 100, "unit": "%"}, {"measurement": "inhibition", "setting": "[22]", "result": 75, "unit": "%"}, {"measurement": "inhibition", "setting": "[23]", "result": 78, "unit": "%"}, {"measurement": "inhibition", "setting": "[24]", "result": 4.9, "unit": "%"}, {"measurement": "inhibition", "setting": "[25]", "result": 0.1, "unit": "%"}, {"measurement": "inhibition", "setting": "[26]", "result": 97, "unit": "%"}, {"measurement": "inhibition", "setting": "[27]", "result": 89, "unit": "%"}]}]}
